Experimental data taken from paper PMC6928796, “Near-Infrared Markers based on Bacterial Phytochromes with Phycocyanobilin as a Chromophore” (International Journal of Molecular Sciences, 2019).

How the values were obtained:
iRFP713 [1] = target: T1, iRFP713 (Rhodopseudomonas palustris, UniProt G1FNL7, C15S); assay: absorption, fluorescence, zinc-stained SDS-PAGE; BV/PCB competition; format: binding; conditions: not covalent; apoprotein with 2-fold excess PCB, pH 8.0, 4 °C
T1 construct: gene iRFP

iRFP713 [2] = target: T1, iRFP713; assay: absorption and fluorescence spectroscopy; BV/PCB competition; format: binding; conditions: not covalent; overnight with both tetrapyrroles, BV to PCB molar ratio 0.02 to 80

| SMILES | absorption, fluorescence, zinc-stained SDS-PAGE; BV/PCB competition (iRFP713 [1]) | absorption and fluorescence spectroscopy; BV/PCB competition (iRFP713 [2]) |
| --- | --- | --- |
| C/C=C1/C(=C/c2[nH]c(/C=C3N=C(/C=C4\NC(=O)C(CC)=C4C)C(C)=C\3CCC(=O)O)c(CCC(=O)O)c2C)NC(=O)[C@@H]1C [PCB, phycocyanobilin] | iRFP713/C15S, lacking the conserved Cys15 residue, forms a fluorescent complex with PCB |  |
| C=CC1=C(C)C(=Cc2[nH]c(C=C3N=C(C=C4NC(=O)C(C)=C4C=C)C(C)=C3CCC(=O)O)c(CCC(=O)O)c2C)NC1=O [BV, biliverdin IXα] |  | The binding affinity of BV ligand to iRFP713/C15S |
